From ChEMBL document CHEMBL1201862, “PubChem BioAssay data set” (2004) come the findings set out here.

Activity calls are given as the source filed them. Some results are limits rather than exact numbers.

Series [1] addresses Voltage-gated inwardly rectifying potassium channel KCNH2 (Homo sapiens, UniProt Q12809). As to conditions: Potency.
Series [2] has as its target Genome polyprotein (dengue virus type 2, UniProt P29990). The series is described as follows: flavivirus cap methylation enzyme inhibition – biochemical, confirmation dose response, primary screen (AID 588689). In kind it is functional.
The target of series [3] is T1, Nuclear receptor subfamily 0 group B member 1 (Homo sapiens, UniProt P51843).
T1 sequence (P51843 whole entry): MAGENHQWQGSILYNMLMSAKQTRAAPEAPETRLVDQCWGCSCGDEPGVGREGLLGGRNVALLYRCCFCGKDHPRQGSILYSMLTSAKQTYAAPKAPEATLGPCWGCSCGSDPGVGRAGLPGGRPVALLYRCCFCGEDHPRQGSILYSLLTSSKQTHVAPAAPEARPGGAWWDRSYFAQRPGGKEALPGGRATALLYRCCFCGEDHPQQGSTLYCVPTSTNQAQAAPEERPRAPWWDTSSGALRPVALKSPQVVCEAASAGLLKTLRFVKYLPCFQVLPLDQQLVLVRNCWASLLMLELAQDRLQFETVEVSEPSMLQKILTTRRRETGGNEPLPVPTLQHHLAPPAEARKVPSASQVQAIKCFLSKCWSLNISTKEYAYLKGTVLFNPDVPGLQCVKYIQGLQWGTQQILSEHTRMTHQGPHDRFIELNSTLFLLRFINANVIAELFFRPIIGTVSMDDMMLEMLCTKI
The series is described as follows: Luminescence-based cell-based high throughput dose response assay for inhibitors of the orphan nuclear receptor subfamily 0, group B, member 1 (DAX1; NR0B1). [Related pubchem assays (depositor defined):AID504766, AID504790]. It is filed as functional.

The subject of series [4] is BJ. The series can be described thus: BJ-TERT-LT-ST fibroblast viability loss – cell-based, RAS-independent, luminescence, dose response (AID 1935).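 Further: BJ fibroblasts immortalized with TERT plus LT and ST oncogenes.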 It is filed as functional. As to conditions: Homo sapiens.
Series [5] concerns BJ. The series can be described thus: cells. It is filed as functional, cell-based. Particulars: Homo sapiens.
For series [6], the system named is BJ. The series is described as follows: BJ-TERT fibroblast viability loss – cell-based, RAS-independent, luminescence, dose response (AID 1933). In kind it is functional. As to conditions: Homo sapiens.
A short description of series [7]: DRD fibroblast viability loss – cell-based, non-viral oncogenic, luminescence, dose response (AID 1934). Particulars: Homo sapiens. In kind it is functional.
In series [8] the test system is HEK293. The series is described as follows: cells. It is filed as functional, cell-based. Particulars: Homo sapiens.
Series [9] in a line: blockers of HIV-1 ZM109 envelope-driven cell-cell fusion – HeLa effector, CEM target cells, luciferase, cherry-pick, dose response (AID 652058).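 Further: luciferase signal from HIV-1 Env mediated cell-cell fusion of effector and target cells.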 It is filed as functional, cell-based.
Series [10] in a line: Luminescence Cell-Based Dose Response HTS to Identify Inhibitors of 5'UTR Stem-Loop Driven Prion Protein mRNA Translation in H4 Neuroglioblastoma Cells. [Related pubchem assays: 1827 (Project Summary), 1813 (Primary HTS)]. In kind it is functional.
The nature of series [11]: luciferase reporter signal suppression in cells – H4 neuroglioma cells, luminescence, dose response (AID 1990). It is filed as functional, cell-based.
The nature of series [12]: alpha-synuclein stem-loop luciferase translation blockers – H4 neuroglioma cells, luminescence, confirmation (AID 1988). It is filed as functional, cell-based.
Series [13] is described as follows: off-target signal loss in HeLa-CEM21 co-culture – HeLa F-luc CTL cells, cherry-picked, counter-screen for HIV-1 Env fusion inhibitor project, dose response (AID 652040).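 Further: potency for signal decrease marking cytotoxic or nonspecific inhibition.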 In kind it is functional, cell-based.
Series [14] is described as follows: blockers of HIV-1 envelope-mediated cell-cell fusion – cherry-pick, dose response (AID 652057). It is filed as functional, cell-based.
Series [15] in a line: HIV-1 AD8 envelope cell-cell fusion blockers – cherry-pick, dose response (AID 652062).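 Further: luciferase signal from cell-cell fusion driven by HIV-1 clade B AD8 Env; potency is for inhibitors of fusion seen as a drop in luminescence.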 It is filed as functional, cell-based.
Series [16] has as its system Vero. The series is described as follows: cells. Particulars: Chlorocebus sabaeus. It is filed as functional.
Series [17] in a line: NIH-3T3 fibroblast cytotoxicity, dose response, cytotoxicity control, cell-based, fluorescence, Alamar Blue, secondary assay (AID 2327).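 Further: NIH-3T3 mouse fibroblasts cultured with fluconazole at 8 µg/mL.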 It is filed as functional.
A short description of series [18]: fluconazole-exposed Candida albicans growth modulators – fluorescence, retest, confirmation (AID 2467). It is filed as functional, cell-based.
Series [19] deals with Dual specificity tyrosine-phosphorylation-regulated kinase 1A (Rattus norvegicus, UniProt Q63470). In kind it is biochemical, Homo sapiens.
Series [20] deals with HeLa. The series can be described thus: ATP-based viability loss in HeLa cells – cell-based, CellTiter-Glo luminescence, cherry-pick samples, cytotoxicity control for MITF activator project, dose response (AID 540259). In kind it is functional. As to conditions: Homo sapiens.
The target of series [21] is T2, Hepatocyte nuclear factor 4-alpha (Homo sapiens, UniProt P41235).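 Further: biochemical luminescence-based dose-response counterscreen measuring inhibition of HNF4 dimerization, run alongside a screen for blockers of ABHD5–perilipin-5 interaction; split luciferase complementation of HNF4 fusion proteins in cell lysate measuring dimerization.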
T2 sequence (P41235 whole entry): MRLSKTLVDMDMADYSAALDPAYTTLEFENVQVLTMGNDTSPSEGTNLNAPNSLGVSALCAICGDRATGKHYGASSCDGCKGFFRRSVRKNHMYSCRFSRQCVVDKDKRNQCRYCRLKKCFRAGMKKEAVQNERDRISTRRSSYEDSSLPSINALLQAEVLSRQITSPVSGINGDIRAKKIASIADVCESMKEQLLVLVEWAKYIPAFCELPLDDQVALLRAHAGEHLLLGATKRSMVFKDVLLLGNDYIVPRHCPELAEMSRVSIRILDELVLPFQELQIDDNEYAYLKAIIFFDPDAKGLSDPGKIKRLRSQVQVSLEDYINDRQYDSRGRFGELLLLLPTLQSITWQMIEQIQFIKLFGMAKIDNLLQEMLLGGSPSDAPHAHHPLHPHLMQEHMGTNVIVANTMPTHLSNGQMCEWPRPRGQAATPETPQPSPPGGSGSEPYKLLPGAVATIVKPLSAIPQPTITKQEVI
It is filed as functional, cell-based.

Series [22] addresses T3, Rac GTPase-activating protein 1 (Homo sapiens, UniProt Q9H0H5).
T3 sequence (Q9H0H5 whole entry): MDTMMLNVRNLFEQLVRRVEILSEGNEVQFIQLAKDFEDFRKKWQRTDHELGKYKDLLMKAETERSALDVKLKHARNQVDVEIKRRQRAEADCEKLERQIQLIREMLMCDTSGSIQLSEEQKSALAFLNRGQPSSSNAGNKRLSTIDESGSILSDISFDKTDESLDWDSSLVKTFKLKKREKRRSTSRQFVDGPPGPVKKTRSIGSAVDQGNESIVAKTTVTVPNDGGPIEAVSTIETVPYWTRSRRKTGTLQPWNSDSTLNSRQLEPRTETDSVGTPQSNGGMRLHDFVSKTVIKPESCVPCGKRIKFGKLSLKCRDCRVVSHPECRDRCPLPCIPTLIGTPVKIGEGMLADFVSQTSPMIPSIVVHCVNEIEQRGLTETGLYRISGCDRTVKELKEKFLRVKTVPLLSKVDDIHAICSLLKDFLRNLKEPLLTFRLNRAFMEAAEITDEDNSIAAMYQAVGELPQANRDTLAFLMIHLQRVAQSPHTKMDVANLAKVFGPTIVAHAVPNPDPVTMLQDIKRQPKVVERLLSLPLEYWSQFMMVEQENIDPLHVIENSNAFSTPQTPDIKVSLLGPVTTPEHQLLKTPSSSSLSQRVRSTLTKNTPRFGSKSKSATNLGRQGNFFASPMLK
The series is described as follows: blockers of MgcRacGAP-driven Rac1 GTP hydrolysis – biochemical, ADP Hunter fluorescence, primary and confirmatory, confirmation (AID 624330). In kind it is functional.

Series [23] addresses Mitogen-activated protein kinase 10 (Homo sapiens, UniProt P53779). The series can be described thus: Dose response biochemical screening assay for inhibitors of c-Jun N-Terminal Kinase 3 (JNK3). [Related pubchem assays: 746 ].
Series [24] deals with Large T antigen (Simian virus 40, UniProt P03070). In kind it is functional, Betapolyomavirus macacae.
Sequence of Large T antigen (P03070 whole entry): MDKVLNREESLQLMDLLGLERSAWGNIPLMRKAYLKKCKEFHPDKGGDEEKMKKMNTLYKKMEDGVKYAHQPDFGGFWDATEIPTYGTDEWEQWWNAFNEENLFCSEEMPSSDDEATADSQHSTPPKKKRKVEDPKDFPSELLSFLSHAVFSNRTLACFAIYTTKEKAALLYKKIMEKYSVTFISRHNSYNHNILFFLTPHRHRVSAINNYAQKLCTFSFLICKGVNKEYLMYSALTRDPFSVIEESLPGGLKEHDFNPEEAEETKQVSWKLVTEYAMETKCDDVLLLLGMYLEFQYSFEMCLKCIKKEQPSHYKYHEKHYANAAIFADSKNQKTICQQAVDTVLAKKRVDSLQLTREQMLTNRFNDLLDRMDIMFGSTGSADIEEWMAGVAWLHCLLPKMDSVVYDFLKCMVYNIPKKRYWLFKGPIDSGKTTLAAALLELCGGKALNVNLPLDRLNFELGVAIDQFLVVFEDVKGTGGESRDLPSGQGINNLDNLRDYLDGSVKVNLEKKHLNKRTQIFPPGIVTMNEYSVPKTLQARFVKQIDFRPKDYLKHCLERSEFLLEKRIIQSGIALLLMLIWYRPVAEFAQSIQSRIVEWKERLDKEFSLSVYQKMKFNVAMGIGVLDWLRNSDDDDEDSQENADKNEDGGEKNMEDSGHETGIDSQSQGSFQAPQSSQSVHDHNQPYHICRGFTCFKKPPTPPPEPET
Series [25] can be described thus: viability of HCT116 lacking mutant beta-catenin – cell-based, human colon tumor, dose response (AID 1045).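 Further: HCT116 colon tumor cells with beta catenin knocked out; cells exposed to compound for 60 hours.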 In kind it is functional.
Series [26] is described as follows: viability of PTEN-deleted HCT116 cells – cell-based, HCT116 PTEN knockout, dose response (AID 1047).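 Further: HCT116 colon tumor cells with PTEN knocked out; cells exposed to compound for 60 hours before readout; potency for loss of cell viability measured by luminescence.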 In kind it is functional.
Series [27] addresses T4, Cytochrome P450 1A2 (Homo sapiens, UniProt P05177).
T4 sequence (P05177 whole entry): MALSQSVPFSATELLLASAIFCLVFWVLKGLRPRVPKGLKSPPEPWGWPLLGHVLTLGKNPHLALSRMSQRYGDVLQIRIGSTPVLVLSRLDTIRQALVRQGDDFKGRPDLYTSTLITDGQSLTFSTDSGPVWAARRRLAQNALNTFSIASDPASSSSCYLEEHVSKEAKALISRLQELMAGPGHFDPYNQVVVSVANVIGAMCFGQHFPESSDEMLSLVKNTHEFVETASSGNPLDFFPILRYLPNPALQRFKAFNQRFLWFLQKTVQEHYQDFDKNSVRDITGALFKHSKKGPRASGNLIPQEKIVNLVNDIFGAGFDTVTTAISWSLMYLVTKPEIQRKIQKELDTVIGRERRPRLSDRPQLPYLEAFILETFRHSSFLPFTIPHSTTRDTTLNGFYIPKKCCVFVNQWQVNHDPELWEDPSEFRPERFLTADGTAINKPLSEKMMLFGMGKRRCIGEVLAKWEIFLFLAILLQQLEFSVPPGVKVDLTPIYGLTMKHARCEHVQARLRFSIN

Series [28] addresses Cytochrome P450 2C19 (Homo sapiens, UniProt P33261). The series can be described thus: Cytochrome panel assay with activity outcomes. Panel member name: p450-cyp2c19 Compounds with AC50 equal or less than 10 uM are considered active. It is filed as functional. Particulars: read-out: AC50.
The target of series [29] is Cytochrome P450 2D6 (Homo sapiens, UniProt P10635).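 Further: CYP2D6 member of a cytochrome P450 panel assay.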
Sequence of Cytochrome P450 2D6 (P10635 whole entry): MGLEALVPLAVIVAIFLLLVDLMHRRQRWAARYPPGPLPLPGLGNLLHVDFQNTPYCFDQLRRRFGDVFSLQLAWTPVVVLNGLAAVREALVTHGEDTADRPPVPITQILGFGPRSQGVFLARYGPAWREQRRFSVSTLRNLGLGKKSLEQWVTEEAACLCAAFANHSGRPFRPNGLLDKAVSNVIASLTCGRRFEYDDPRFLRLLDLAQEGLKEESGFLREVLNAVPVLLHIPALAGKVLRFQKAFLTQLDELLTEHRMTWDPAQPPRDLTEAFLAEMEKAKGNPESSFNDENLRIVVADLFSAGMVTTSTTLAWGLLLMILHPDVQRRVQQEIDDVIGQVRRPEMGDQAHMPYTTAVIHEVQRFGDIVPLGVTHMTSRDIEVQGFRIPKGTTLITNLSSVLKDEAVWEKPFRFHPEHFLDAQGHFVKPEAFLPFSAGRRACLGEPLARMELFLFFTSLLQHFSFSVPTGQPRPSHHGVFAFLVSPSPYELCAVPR
The target in series [30] is Cytochrome P450 3A4 (Homo sapiens, UniProt P08684).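 Further: CYP3A4 tested as one member of a cytochrome P450 panel screen.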
Sequence of Cytochrome P450 3A4 (P08684 whole entry): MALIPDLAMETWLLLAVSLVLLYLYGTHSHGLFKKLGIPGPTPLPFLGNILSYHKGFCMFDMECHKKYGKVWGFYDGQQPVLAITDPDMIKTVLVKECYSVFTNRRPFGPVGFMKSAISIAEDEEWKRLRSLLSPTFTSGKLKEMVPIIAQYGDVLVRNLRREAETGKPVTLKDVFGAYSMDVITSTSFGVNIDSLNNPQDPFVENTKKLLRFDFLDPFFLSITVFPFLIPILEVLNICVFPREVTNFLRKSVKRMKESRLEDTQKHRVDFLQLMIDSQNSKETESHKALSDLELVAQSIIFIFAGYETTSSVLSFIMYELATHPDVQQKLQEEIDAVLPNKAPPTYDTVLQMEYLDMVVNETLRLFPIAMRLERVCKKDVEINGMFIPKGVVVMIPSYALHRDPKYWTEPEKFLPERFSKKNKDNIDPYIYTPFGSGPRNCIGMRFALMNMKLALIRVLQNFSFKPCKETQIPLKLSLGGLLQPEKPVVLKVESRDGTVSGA

Sequence of Voltage-gated inwardly rectifying potassium channel KCNH2 (Q12809 whole entry): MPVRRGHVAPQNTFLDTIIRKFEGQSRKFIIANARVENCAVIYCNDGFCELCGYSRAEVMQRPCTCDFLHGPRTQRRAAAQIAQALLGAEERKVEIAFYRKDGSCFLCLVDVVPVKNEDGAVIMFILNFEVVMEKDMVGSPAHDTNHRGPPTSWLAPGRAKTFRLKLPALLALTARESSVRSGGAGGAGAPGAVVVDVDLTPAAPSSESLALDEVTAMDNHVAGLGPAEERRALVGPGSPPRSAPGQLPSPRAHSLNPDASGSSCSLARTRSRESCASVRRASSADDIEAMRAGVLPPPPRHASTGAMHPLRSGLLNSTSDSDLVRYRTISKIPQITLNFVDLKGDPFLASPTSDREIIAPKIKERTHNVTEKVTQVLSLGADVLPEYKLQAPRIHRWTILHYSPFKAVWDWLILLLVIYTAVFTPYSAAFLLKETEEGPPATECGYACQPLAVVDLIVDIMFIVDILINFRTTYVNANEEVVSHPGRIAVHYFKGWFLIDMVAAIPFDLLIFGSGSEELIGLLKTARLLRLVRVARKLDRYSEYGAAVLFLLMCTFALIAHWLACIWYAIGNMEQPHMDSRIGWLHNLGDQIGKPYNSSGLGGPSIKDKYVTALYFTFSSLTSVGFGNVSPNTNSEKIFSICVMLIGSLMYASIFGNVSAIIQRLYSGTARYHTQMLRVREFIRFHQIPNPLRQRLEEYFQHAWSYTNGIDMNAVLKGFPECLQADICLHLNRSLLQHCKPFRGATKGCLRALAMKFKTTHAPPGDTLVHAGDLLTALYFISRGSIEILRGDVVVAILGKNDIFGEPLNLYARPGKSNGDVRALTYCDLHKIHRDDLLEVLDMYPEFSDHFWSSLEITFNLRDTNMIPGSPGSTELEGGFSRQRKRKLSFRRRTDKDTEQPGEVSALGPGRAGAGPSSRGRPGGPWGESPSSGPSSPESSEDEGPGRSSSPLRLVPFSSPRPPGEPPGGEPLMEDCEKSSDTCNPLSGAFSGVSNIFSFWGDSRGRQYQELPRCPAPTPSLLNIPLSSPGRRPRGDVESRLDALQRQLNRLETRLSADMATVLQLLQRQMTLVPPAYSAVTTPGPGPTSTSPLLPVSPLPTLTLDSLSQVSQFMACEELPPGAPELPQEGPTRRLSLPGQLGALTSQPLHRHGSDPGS
Sequence of Genome polyprotein (P29990 2492-3391 limits assumed): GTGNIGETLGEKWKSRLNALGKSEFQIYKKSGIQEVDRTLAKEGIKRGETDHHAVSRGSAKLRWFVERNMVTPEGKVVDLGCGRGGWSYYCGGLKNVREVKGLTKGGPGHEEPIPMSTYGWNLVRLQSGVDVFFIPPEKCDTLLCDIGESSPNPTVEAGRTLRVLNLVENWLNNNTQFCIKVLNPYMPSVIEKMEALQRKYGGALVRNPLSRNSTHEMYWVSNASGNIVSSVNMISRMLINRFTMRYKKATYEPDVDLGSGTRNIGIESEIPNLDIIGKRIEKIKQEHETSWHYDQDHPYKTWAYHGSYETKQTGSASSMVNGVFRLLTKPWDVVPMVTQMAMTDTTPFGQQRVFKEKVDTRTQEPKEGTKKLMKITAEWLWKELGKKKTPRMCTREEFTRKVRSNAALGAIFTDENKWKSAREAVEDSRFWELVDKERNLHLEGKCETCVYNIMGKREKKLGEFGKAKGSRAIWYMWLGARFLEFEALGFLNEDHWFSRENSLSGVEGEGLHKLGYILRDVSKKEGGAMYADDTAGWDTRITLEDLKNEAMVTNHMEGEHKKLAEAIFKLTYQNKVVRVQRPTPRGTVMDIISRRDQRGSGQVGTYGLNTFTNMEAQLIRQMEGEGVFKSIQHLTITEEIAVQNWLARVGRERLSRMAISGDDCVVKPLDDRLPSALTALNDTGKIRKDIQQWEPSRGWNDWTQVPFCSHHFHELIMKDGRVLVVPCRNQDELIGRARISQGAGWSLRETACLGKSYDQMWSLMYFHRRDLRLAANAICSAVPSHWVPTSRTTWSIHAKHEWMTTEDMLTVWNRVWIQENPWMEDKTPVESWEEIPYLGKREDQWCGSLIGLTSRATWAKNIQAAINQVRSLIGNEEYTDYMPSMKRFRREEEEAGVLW
Sequence of Mitogen-activated protein kinase 10 (P53779 whole entry): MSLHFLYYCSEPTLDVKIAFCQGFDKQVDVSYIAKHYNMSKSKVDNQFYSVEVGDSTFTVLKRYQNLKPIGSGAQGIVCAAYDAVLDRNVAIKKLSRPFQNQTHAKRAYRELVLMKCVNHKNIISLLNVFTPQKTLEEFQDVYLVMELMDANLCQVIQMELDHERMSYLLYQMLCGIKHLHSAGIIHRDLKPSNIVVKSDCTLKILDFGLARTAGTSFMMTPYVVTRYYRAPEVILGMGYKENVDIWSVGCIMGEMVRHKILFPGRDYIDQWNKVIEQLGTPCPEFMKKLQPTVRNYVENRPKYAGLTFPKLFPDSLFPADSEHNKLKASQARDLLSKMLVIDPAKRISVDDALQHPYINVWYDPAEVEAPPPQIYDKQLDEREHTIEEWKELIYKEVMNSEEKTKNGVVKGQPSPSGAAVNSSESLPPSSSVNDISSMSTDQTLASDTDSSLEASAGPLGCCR
Sequence of Cytochrome P450 2C19 (P33261 whole entry): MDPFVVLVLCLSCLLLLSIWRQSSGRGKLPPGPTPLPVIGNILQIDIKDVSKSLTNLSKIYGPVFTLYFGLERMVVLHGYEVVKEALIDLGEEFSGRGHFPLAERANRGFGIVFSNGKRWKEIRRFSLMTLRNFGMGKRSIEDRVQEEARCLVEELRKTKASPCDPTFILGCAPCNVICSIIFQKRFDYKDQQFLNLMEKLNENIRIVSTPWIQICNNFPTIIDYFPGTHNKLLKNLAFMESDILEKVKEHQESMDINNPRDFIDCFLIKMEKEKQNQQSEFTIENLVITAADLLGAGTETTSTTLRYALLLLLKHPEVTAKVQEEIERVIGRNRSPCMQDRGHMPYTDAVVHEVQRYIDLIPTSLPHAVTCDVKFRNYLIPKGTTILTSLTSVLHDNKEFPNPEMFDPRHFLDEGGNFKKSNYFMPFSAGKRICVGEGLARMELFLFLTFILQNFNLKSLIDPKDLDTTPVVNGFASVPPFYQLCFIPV

With `CCCCC(CC)CNCC(CC)CCCC` (stereo not given), the AC50 in series [1] is 10 µM (inconclusive).

As to `c1ccc(CSCc2ccccc2)cc1`, the AC50 in series [1] is 31.6 µM (inconclusive).

For `O=C(O)c1ccccc1C(=O)c1ccc(Sc2ccc(Cl)cc2)c([N+](=O)[O-])c1`, the values for the IC50 in series [2], in [3] and in series [8] were 35.1 µM (active), > 67.5 µM (inactive) and > 67.5 µM (inactive), respectively. The EC50 in [4], in [5], in series [6] and in series [7] was > 150 µM (not active) throughout.

As to `O=C(NCc1ccco1)c1ccc(Cn2c(=O)c3ccccc3n(Cc3cccc(F)c3)c2=O)cc1`, the AC50 was 5.5 µM (active) in series [9], 3.52 µM (active) in [13] and 2.17 µM (active) in series [14]. Further, the values for the EC50 in [10], in series [11] and in [12] were > 120 µM (not active), 15.1 µM (active) and 41.4 µM (active), respectively.

In the case of `COc1cc(OCC(=O)NC(C)C)cc2c1C(=O)O[C@@H](C)CCCC(=O)CCCCC2`, the AC50 was 6.68 µM (active) in [9], 26.4 µM (active) in [15], 10.5 µM (active) in series [13] and 6.38 µM (active) in [14].

Turning to `CCCCC(=O)NC(c1ccc([N+](=O)[O-])cc1)c1c(O)ccc2ccccc12` (stereo not given), the CC50 in [16] was 9.36 µM (active).

As for `O=C(Nc1cccc(Cl)c1)Nc1nccs1`, the EC50 in [17] was > 160 µM (inactive); in series [18], 1.17 µM (active). For the same compound, the AC50 in [19] was 8.46 µM (active).

As for `CN1CCN(c2ccc3ccccc3n2)CC1`, in series [1], the AC50 is 35.5 µM (inconclusive).

As to `CN1CCSc2ccc(C(=O)Nc3cc(F)ccc3F)cc21`, the IC50 in [3] and in [8] was > 67.5 µM (inactive) in each case. The AC50 in [20] is 44.2 µM (active).

Regarding `O=C(O)/C=C/c1ccc(/C=C/C(=O)O)cc1`, the AC50 in series [1] was 79.4 µM (inconclusive).

On to `O=C(/C(=C/c1ccccc1)n1cncn1)c1ccc(Cl)cc1Cl`, for which the IC50 in series [21] is 3.22 µM (active); in series [22], 150 µM (active).

On to `NC(=O)c1cc(Br)cc2c3c([nH]c12)CCCC3`, for which the IC50 in series [23] is on record as 12.5 µM (not active). In addition, the AC50 in [19] is 9.32 µM (active).

On to `CCOC(=O)CSc1nc2cc3c(cc2cc1C#N)OCCO3`, for which the IC50 in series [3] and in series [8] was > 67.5 µM (inactive) each time.

In the case of `O=C(CC(O)CCc1ccccc1)c1ccc(O)cc1` (stereo not given), the IC50 in series [3] and in series [8] was > 67.5 µM (inactive) each time.

As to `O=c1c(-c2ccco2)nc2ccccc2n1C(CCc1ccccc1)c1nc2ccccc2[nH]1` (stereo not given), in series [21], the IC50 is 2.54 µM (active).

Regarding `CC(C)(C)NC(=O)C(c1ccncc1)n1c(=O)c(-c2ccco2)nc2ccccc21` (stereo not given), the IC50 in series [21] is 8.03 µM (active).

As for `O=C1OCC/C1=C\c1ccc(O)cc1`, the IC50 in series [24] is 17.4 µM (active); in [22], 28.9 µM (active). Moreover, in series [19], the AC50 is 0.585 µM (active).

Take `Cn1nc(-c2ccc(Cl)cc2)c2cc(C(=O)NCCN3CCOCC3)sc21`: the IC50 in series [3] and in series [8] was > 67.5 µM (inactive) each time. In addition, the EC50 in [25] was 17 µM (active); in series [26] it was 22.4 µM (active).

In the case of `C[C@H](Cc1ccc(O)c(O)c1)[C@@H](C)Cc1ccc(O)c(O)c1` [MASOPROCOL], the AC50 in series [27] was 25.1 µM (inconclusive); in series [28] it was 15.8 µM (inconclusive); in series [1], 35.5 µM (inconclusive); in series [29] it was 39.8 µM (inconclusive); in [30], “inconclusive”.
